The record followed here is patent publication US10584115B2, “Substituted pyridine and pyrazine BMI-1 inhibitors” (PTC Therapeutics, Inc., priority 2013, dated 2020).

pEC50: −log10 of the molar value. Some results are limits rather than exact numbers.

Broadly, the pEC50 is the negative decadic logarithm of the EC50, by convention in mol/L.

The test system of one experiment is Bmi-1 protein. Kind of experiment: Sandwich ELISA Assay (Bmi-1 protein level in HT-1080 cells after compound treatment). To be noted: Table 1, Bmi-1 sandwich ELISA, read-out: ELISA EC50 value for Bmi-1 protein. It counts as cell-based. Put shortly:
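Sandwich ELISA quantified Bmi-1 protein against recombinant standard (125–8000 pg/mL), with lysates captured overnight at 4 °C and signal by HRP/TMB at 450 nm (570 nm reference). Lysates came from HT-1080 cells incubated 40–48 h with test compounds in 0.5% DMSO.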
On the technique in general: In an ELISA, binding on a coated surface is turned into a signal by an enzyme label.
As for `OCCNc1cc(Nc2ccc(C(F)(F)F)cc2)nc(-c2c(C(F)(F)F)nc3ccccn23)c1` [compound 160, 2-[(2-[2-(trifluoromethyl)imidazo[1,2-a]pyridin-3-yl]-6-{[4-(trifluoromethyl)phenyl]amino}pyridin-4-yl)amino]ethanol], the pEC50 was 7.00 to 8.00. Regarding `Cc1cnc(C)n1-c1cncc(Nc2ccc(C(F)(F)F)cc2)n1` [Cpd 355, 6-(2,5-dimethyl-1H-imidazol-1-yl)-N-[4-(trifluoromethyl)phenyl]pyrazin-2-amine], the negative-log EC50 (pEC50) was 5.52 to 7.00.

For `FC(F)(F)c1ccc(Nc2cncc(-c3c(C4CC4)nc4ncccn34)n2)cc1` [compound 422, 6-(2-cyclopropylimidazo[1,2-a]pyrimidin-3-yl)-N-[4-(trifluoromethyl)phenyl]pyrazin-2-amine], the pEC50 is 7.00 to 8.00. Still for that read-out and setting: as for `Cc1ccc(Nc2cccc(-n3c(C)nc4ccc(F)cc43)n2)cc1` [Cpd 587, 6-(6-fluoro-2-methyl-1H-benzimidazol-1-yl)-N-(4-methylphenyl)pyridin-2-amine], the figure is 8.00 to 9.00; as for `COc1ccc(Nc2cncc(-n3c(C)nc4cc(F)c(F)cc43)n2)cc1` [compound 573, 6-(5,6-difluoro-2-methyl-1H-benzimidazol-1-yl)-N-(4-methoxyphenyl)pyrazin-2-amine], 5.52 to 7.00; as for `CSc1ccc(Nc2cncc(-c3c(C(F)(F)F)nc4ccccn34)n2)cc1` [compound 69, N-[4-(methylsulfanyl)phenyl]-6-[2-(trifluoromethyl)imidazo[1,2-a]pyridin-3-yl]pyrazin-2-amine], 8.00 to 9.00.

In the case of `Cc1nc2ccccc2n1-c1cncc(Nc2ccc(Br)cc2)n1` [compound 616, N-(4-bromophenyl)-6-(2-methyl-1H-benzimidazol-1-yl)pyrazin-2-amine], the negative-log EC50 (pEC50) is 8.00 to 9.00. On to `COc1ccc(Nc2cc(C#N)cc(-n3c(C)nc4ccc(F)cc43)n2)cc1` [compound 589, 2-(6-fluoro-2-methyl-1H-benzimidazol-1-yl)-6-[(4-methoxyphenyl)amino]pyridine-4-carbonitrile], for which the pEC50 is 7.00 to 8.00. In the case of `Cc1nc2ccccc2n1-c1c[n+]([O-])cc(Nc2ccc(OC(F)F)cc2)n1` [compound 531, N-[4-(difluoromethoxy)phenyl]-6-(2-methyl-1H-benzimidazol-1-yl)pyrazin-2-amine 4-oxide], the pEC50 was 7.00 to 8.00.

Turning to `Cc1nn(C)c(C)c1-c1cncc(Nc2ccc(OC(F)F)cc2)n1` [compound 143, N-[4-(difluoromethoxy)phenyl]-6-(1,3,5-trimethyl-1H-pyrazol-4-yl)pyrazin-2-amine], the negative logarithm of the EC50 (pEC50) was over 9.00.

Regarding `CCc1nc2ncc(Nc3ccc(OC(F)F)cc3)cc2n1-c1cncc(Nc2ccc(OC(F)F)cc2)n1` [compound 545, N-[4-(difluoromethoxy)phenyl]-1-(6-{[4-(difluoromethoxy)phenyl]amino}pyrazin-2-yl)-2-ethyl-1H-imidazo[4,5-b]pyridin-6-amine], the negative logarithm of the EC50 (pEC50) was 5.52 to 7.00.

With `COc1ccc(Nc2cc(N)cc(-n3c(C)nc4ccccc43)n2)cc1` [compound 580, N^2-(4-methoxyphenyl)-6-(2-methyl-1H-benzimidazol-1-yl)pyridine-2,4-diamine], the pEC50 was 7.00 to 8.00.

For `CCc1nc2ncc(F)cc2n1-c1cncc(Nc2ccc(C(F)(F)F)cc2)n1` [compound 271, 6-(2-ethyl-6-fluoro-1H-imidazo[4,5-b]pyridin-1-yl)-N-[4-(trifluoromethyl)phenyl]pyrazin-2-amine], the pEC50 is 8.00 to 9.00. The same measure, in the same setting: for `Cc1nc2ccccc2n1-c1cncc(Nc2ccc(OC(F)F)cc2)n1` [compound 21, N-[4-(difluoromethoxy)phenyl]-6-(2-methyl-1H-benzimidazol-1-yl)pyrazin-2-amine] the value was 8.00 to 9.00; for `C[C@H](O)c1nc2ccccc2n1-c1cncc(Nc2ccc(C(F)(F)F)cc2)n1` [compound 98, (1S)-1-[1-(6-{[4-(trifluoromethyl)phenyl]amino}pyrazin-2-yl)-1H-benzimidazol-2-yl]ethanol], 7.00 to 8.00; for `FC(F)(F)Oc1ccc(Nc2cncc(-c3c(C(F)(F)F)nc4cnccn34)n2)cc1` [compound 141, N-[4-(trifluoromethoxy)phenyl]-6-[2-(trifluoromethyl)imidazo[1,2-a]pyrazin-3-yl]pyrazin-2-amine], 5.52 to 7.00. Consider `Cc1nc(C)n(-c2cncc(Nc3ccc(OC(F)F)cc3)n2)c1Cl` [compound 305, 6-(5-chloro-2,4-dimethyl-1H-imidazol-1-yl)-N-[4-(difluoromethoxy)phenyl]pyrazin-2-amine], for which the pEC50 is 5.52 to 7.00. Same read-out and setting: as for `Cc1nn2ccccc2c1-c1cncc(Nc2ccc(OC(F)F)cc2)n1` [compound 498, N-[4-(difluoromethoxy)phenyl]-6-(2-methylpyrazolo[1,5-a]pyridin-3-yl)pyrazin-2-amine], the figure is 8.00 to 9.00; as for `COc1ccc2nc(C)c(-c3cc(C#N)cc(Nc4ccccc4)n3)n2c1` [compound 675, 2-(6-methoxy-2-methylimidazo[1,2-a]pyridin-3-yl)-6-(phenylamino)pyridine-4-carbonitrile], 7.00 to 8.00; as for `COc1ccc(Nc2cc(C)cc(-n3c(C)nc4ccccc43)n2)cc1` [compound 655, N-(4-methoxyphenyl)-4-methyl-6-(2-methyl-1H-benzimidazol-1-yl)pyridin-2-amine], 5.52 to 7.00. With `COc1c(F)cc(Nc2cc(C#N)cc(-c3c(C4CC4)nc4ccc(F)cn34)n2)cc1F` [compound 351, 2-(2-cyclopropyl-6-fluoroimidazo[1,2-a]pyridin-3-yl)-6-[(3,5-difluoro-4-methoxyphenyl)amino}pyridine-4-carbonitrile], the negative-log EC50 (pEC50) was 7.00 to 8.00. `Cc1nc2ccccc2n1-c1cncc(Nc2ccc(B(O)O)cc2)n1` [compound 434, (4-{[6-(2-methyl-1H-benzimidazol-1-yl)pyrazin-2-yl]amino}phenyl)boronic acid]: the negative-log EC50 (pEC50) was 7.00 to 8.00. Take `[O-][n+]1cc(Nc2ccc(C(F)(F)F)cc2)nc(-c2c(C(F)(F)F)nc3ccc(F)cn23)c1` [compound 538, 6-[6-fluoro-2-(trifluoromethyl)imidazo[1,2-a]pyridin-3-yl]-N-[4-(trifluoromethyl)phenyl]pyrazin-2-amine 4-oxide]: the pEC50 was 8.00 to 9.00. `N#Cc1nc2ccccc2n1-c1cncc(Nc2ccc(OC(F)F)cc2)n1` [compound 188, 1-(6-{[4-(difluoromethoxy)phenyl]amino}pyrazin-2-yl)-1H-benzimidazole-2-carbonitrile]: the pEC50 is 7.00 to 8.00. Still for that read-out and setting: for `FC(F)(F)Oc1ccc(Nc2cccc(-c3c(C(F)(F)F)nc4ncccn34)n2)cc1` [compound 99, N-[4-(trifluoromethoxy)phenyl]-6-[2-(trifluoromethyl)imidazo[1,2-a]pyrimidin-3-yl]pyridin-2-amine] the value was 5.52 to 7.00; for `COc1ccc(Nc2cccc(-n3c(C)nc4cc(F)c(F)cc43)n2)cc1` [compound 613, 6-(5,6-difluoro-2-methyl-1H-benzimidazol-1-yl)-N-(4-methoxyphenyl)pyridin-2-amine], 7.00 to 8.00.

Consider `FC(F)Oc1ccc(Nc2cncc(-c3c(C(F)(F)F)nn4ccccc34)n2)cc1` [compound 72, N-[4-(difluoromethoxy)phenyl]-6-[2-(trifluoromethyl)pyrazolo[1,5-a]pyridin-3-yl]pyrazin-2-amine], for which the negative logarithm of the EC50 (pEC50) is 8.00 to 9.00. In the case of `Cc1nc2ccc(F)cc2n1-c1cncc(Nc2ccc(Cl)c(F)c2)n1` [compound 654, N-(4-chloro-3-fluorophenyl)-6-(6-fluoro-2-methyl-1H-benzimidazol-1-yl)pyrazin-2-amine], the pEC50 was 7.00 to 8.00. In the case of `N#Cc1ccc(Nc2cncc(-c3c(C(F)(F)F)nc4ccccn34)n2)cc1` [Cpd 23], the pEC50 was 7.00 to 8.00. Still for that read-out and setting: as for `Cc1nc2cc(Cl)ccc2n1-c1cncc(Nc2ccc(OC(F)(F)F)cc2)n1` [compound 223, 6-(5-chloro-2-methyl-1H-benzimidazol-1-yl)-N-[4-(trifluoromethoxy)phenyl]pyrazin-2-amine], the figure is 5.52 to 7.00; as for `COc1cccc(Nc2cncc(-n3c(C)nc4ccc(F)cc43)n2)c1` [compound 559, 6-(6-fluoro-2-methyl-1H-benzimidazol-1-yl)-N-(3-methoxyphenyl)pyrazin-2-amine], 5.52 to 7.00; as for `Cc1nc2ccccc2n1-c1cncc(Nc2ccc(C(F)(F)F)nc2)n1` [compound 73, 6-(2-methyl-1H-benzimidazol-1-yl)-N-[6-(trifluoromethyl)pyridin-3-yl]pyrazin-2-amine], 7.00 to 8.00.

For `Cc1nc2ncc(Nc3ccc(OC(F)F)cc3)cc2n1-c1cncc(Nc2ccc(OC(F)F)cc2)n1` [compound 547, N-[4-(difluoromethoxy)phenyl]-1-(6-{[4-(difluoromethoxy)phenyl]amino}pyrazin-2-yl)-2-methyl-1H-imidazo[4,5-b]pyridin-6-amine], the negative-log EC50 (pEC50) was 5.52 to 7.00.

With `CCc1nc2ncc(Cl)cc2n1-c1cncc(Nc2ccc(OC(F)F)c(F)c2)n1` [compound 546, 6-(6-chloro-2-ethyl-1H-imidazo[4,5-b]pyridin-1-yl)-N-[4-(difluoromethoxy)-3-fluorophenyl]pyrazin-2-amine], the pEC50 is 8.00 to 9.00. On to `Cc1nc2cc(F)c(F)cc2n1-c1cncc(Nc2ccc(N3CCOCC3)nc2)n1` [compound 423, 6-(5,6-difluoro-2-methyl-1H-benzimidazol-1-yl)-N-[6-(morpholin-4-yl)pyridin-3-yl]pyrazin-2-amine], for which the pEC50 was 7.00 to 8.00. Consider `Nc1cc(Nc2ccc(C(F)(F)F)cc2)nc(-n2c(C3CC3)nc3cc(F)c(F)cc32)c1` [compound 504, 6-(2-cyclopropyl-5,6-difluoro-1H-benzimidazol-1-yl)-N^2-[4-(trifluoromethyl)phenyl]pyridine-2,4-diamine], for which the pEC50 was 7.00 to 8.00.

Still in this experiment, the particulars now being: read-out: ELISA EC50 value for Bmi-1 protein, Table 1, Bmi-1 sandwich ELISA.
Regarding `FC(F)(F)c1ccc(Nc2cncc(-c3c(C(F)(F)F)nc4n3CCCC4)n2)cc1` [Cpd 232, N-[4-(trifluoromethyl)phenyl]-6-[2-(trifluoromethyl)-5,6,7,8-tetrahydroimidazo[1,2-a]pyridin-3-yl]pyrazin-2-amine], the negative-log EC50 (pEC50) is 8.00 to 9.00.
